Experimental data reported in patent US20200188466A1, “COMPOSITIONS OF SCHISANDRA EXTRACTS AND METHODS THEREOF” (Reyoung Corporation, priority 2017, published 2020).
Like-named read-outs stand apart in the source and are kept apart here.

Assay: Plasma kinetic study of celastrol with and without Schisandrin A
Type: in vivo, Sprague Dawley rats
Settings: rats; for Cmax / Tmax / AUC(0-t) / AUC(0-inf) / MRT last / MRT inf / half-life: male, Sprague Dawley, rat, plasma, po, 1.8 mg/kg; for AUC(0-t): read-out: AUC0→t of celastrol; for AUC(0-inf): read-out: AUC0→∞ of celastrol; for MRT last: read-out: MRT0→t of celastrol; for MRT inf: read-out: MRT0→∞ of celastrol; for half-life: read-out: T1/2 of celastrol (converted)
Method: 42 Male Sprague Dawley rats (weight, 210-250 g) were maintained on a 12-hour light/dark cycle with free access to water and lab chow for 10-14 h prior to the experiment. Rats were randomly divided into 7 groups (n=6 each) and groups 2-7 received 0 mg/kg, 5.5 mg/kg, and 11.0 mg/kg, 22.0 mg/kg, 44.0 mg/kg and 88.0 mg/kg of Schisandrin A in 1% CMC-Na (300-800 cps) via oral administration, respectively. After 5 minutes, all the groups received 1.8 mg/kg of celastrol in a solution of 2% DMSO-98% sterile water via oral administration.
After celastrol treatment, blood samples were collected from individual rat at 0.25 h, 0.5 h, 1 h, 2 h, 4 h, 8 h, 12 h, 24 h, 36 h, and 48 h, respectively. Plasma was separated by centrifugation at 8000 rpm for 6 minutes at 4° C. and kept at −80° C. until analysis. Plasma homogenate was injected into LC-MS/MS for analysis.

[1] = Group1, celastrol 1.8 mg/kg oral, no Schisandrin A dose stated
[2] = Group2, Schisandrin A 0 mg/kg oral 5 min before celastrol 1.8 mg/kg oral
[3] = Group3, Schisandrin A 5.5 mg/kg oral 5 min before celastrol 1.8 mg/kg oral
[4] = Group4, Schisandrin A 11.0 mg/kg oral 5 min before celastrol 1.8 mg/kg oral
[5] = Group5, Schisandrin A 22.0 mg/kg oral 5 min before celastrol 1.8 mg/kg oral
[6] = Group6, Schisandrin A 44.0 mg/kg oral 5 min before celastrol 1.8 mg/kg oral
[7] = Group7, Schisandrin A 88.0 mg/kg oral 5 min before celastrol 1.8 mg/kg oral

## CC1=C(O)C(=O)C=C2C1=CC=C1[C@@]2(C)CC[C@@]2(C)[C@@H]3C[C@](C)(C(=O)O)CC[C@]3(C)CC[C@]12C [celastrol]
[1]
  T1/2 of celastrol: 10.07 ± 2.48 h
  Cmax: 7.03 ± 2.65 ng/mL
  Tmax: 5.33 ± 2.07 h
  AUC(0-t): 103 ± 28.2 ng·h/mL
  AUC(0-inf): 125 ± 22.4 ng·h/mL
  MRT last: 12.1 ± 1.74 h
  MRT inf: 12.1 ± 3.49 h
[2]
  Cmax: 5.94 ± 1.38 ng/mL
  Tmax: 4 h
  AUC(0-t): 93.2 ± 2.74 ng·h/mL
  AUC(0-inf): 107 ± 19.6 ng·h/mL
  MRT last: 12 ± 1.82 h
  MRT inf: 12 ± 2.33 h
  half-life: 12.1 ± 1.77 h
[3]
  Cmax: 7.13 ± 1.86 ng/mL
  Tmax: 5.6 ± 3.58 h
  AUC(0-t): 117 ± 27.8 ng·h/mL
  AUC(0-inf): 124 ± 27.9 ng·h/mL
  MRT last: 13.1 ± 2.27 h
  MRT inf: 18.8 ± 8.57 h
  half-life: 11.5 ± 5.18 h
[4]
  Cmax: 7.08 ± 0.57 ng/mL
  Tmax: 4 h
  AUC(0-t): 123 ± 20.1 ng·h/mL
  AUC(0-inf): 133 ± 20.1 ng·h/mL
  MRT last: 12.9 ± 1.05 h
  MRT inf: 15.7 ± 1.91 h
  half-life: 9.1 ± 1.71 h
[5]
  Cmax: 7.45 ± 2.72 ng/mL
  Tmax: 9.33 ± 4.13 h
  AUC(0-t): 146 ± 48.4 ng·h/mL
  AUC(0-inf): 121 ± 31.7 ng·h/mL
  MRT last: 14.2 ± 1.26 h
  MRT inf: 16.9 ± 1.65 h
  half-life: 10.3 ± 1.76 h
[6]
  Cmax: 7.43 ± 3.47 ng/mL
  Tmax: 10.7 ± 3.27 h
  AUC(0-t): 156 ± 68.5 ng·h/mL
  AUC(0-inf): 198 ± 94.4 ng·h/mL
  MRT last: 14.9 ± 2.32 h
  MRT inf: 33.1 ± 20.5 h
  half-life: 23.8 ± 18 h
[7]
  Cmax: 9.15 ± 6.48 ng/mL
  Tmax: 6.67 ± 4.13 h
  AUC(0-t): 171 ± 99.1 ng·h/mL
  AUC(0-inf): 186 ± 108 ng·h/mL
  MRT last: 14.2 ± 1.18 h
  MRT inf: 16.7 ± 1.68 h
  half-life: 9.29 ± 1.97 h
